For one test, the target named is T1, wild-type 5-HT3 receptor (Mus musculus, UniProt P23979).
T1 sequence (P23979 24-483 isoform P23979-2 limits assumed): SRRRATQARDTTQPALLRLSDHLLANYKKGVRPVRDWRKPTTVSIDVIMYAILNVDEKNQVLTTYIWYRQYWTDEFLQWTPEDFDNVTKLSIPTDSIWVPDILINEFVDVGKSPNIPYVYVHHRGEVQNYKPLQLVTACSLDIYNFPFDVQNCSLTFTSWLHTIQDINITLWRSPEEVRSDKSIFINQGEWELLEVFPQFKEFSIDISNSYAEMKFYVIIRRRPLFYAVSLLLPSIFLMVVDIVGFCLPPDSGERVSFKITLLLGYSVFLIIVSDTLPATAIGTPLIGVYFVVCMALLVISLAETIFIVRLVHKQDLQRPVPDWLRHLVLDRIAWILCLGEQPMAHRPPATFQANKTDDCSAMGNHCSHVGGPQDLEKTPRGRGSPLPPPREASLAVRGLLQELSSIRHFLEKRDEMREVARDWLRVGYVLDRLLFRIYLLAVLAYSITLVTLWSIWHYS
As to conditions: maximum number of binding sites, n = 5.

Test [1] concerns the target T2, R344H mutant 5-HT3 receptor (Mus musculus, UniProt P23979, R349H).
T2 sequence (P23979 24-483 isoform P23979-2 R349H limits assumed): T1 sequence (P23979 24-483 isoform P23979-2 limits assumed) with R326H
As to conditions: maximum number of binding sites, n = 9.

Test [2] has as its target T3, P391R mutant 5-HT3 receptor (Mus musculus, UniProt P23979, P402R).
T3 sequence (P23979 24-483 isoform P23979-2 P396R limits assumed): T1 sequence (P23979 24-483 isoform P23979-2 limits assumed) with P373R
As to conditions: maximum number of binding sites, n = 5.

Positions count from the first letter of the chain named.

With `CN1C2CCCC1CC(NC(=O)c1nn(C)c3ccccc13)C2` (stereo not drawn) [[^3H]Granisetron], the Bmax at wild-type 5-HT3 receptor is 567 ± 149 fmol/mg; in test [1], 853 ± 232 fmol/mg; in test [2] it was 353 ± 113 fmol/mg.

Values taken from publication PMC2649375 (Journal of molecular neuroscience : MN, 2006).
